Test [1] deals with MCF-10A (non-tumorigenic epithelial cells of mammary gland). Put plainly: MTT antiproliferative assay, MCF-10A. Type of test: cell-based, human. To be noted: 72 h. As for the experimental part:
(§1) Antiproliferative activity of some compounds was evaluated on cell cultures derived from MDA-MB-231 (triple negative human breast carcinoma). […] This finding allowed us to further investigate the antiproliferative activity of selected compounds on additional tumor cell lines. We studied the influence of the stereochemical orientation of the substituents at C2 and C3 in substituted 3,4-dihydro-2H-pyrrole-2-carbonitriles. The antiproliferative activity of single diastereomers of some nitriles 4 and the amide cis-6m were assessed on multiple human cancer cell lines via the MTT assay. For these experiments, the following human cell lines were used: MCF-7 (luminal type A breast carcinoma), MD-MBA-231, H1299 (non-small-cell lung carcinoma cells), A549 (lung alveolar adenocarcinoma), HeLa (cervical cancer), HepG2 (hepatocellular carcinoma), HT-29 (colorectal adenocarcinoma) and PC3 (prostate adenocarcinoma). As a model of normal tissue, we used MCF-10A (non-tumorigenic epithelial cells of mammary gland). Table 5 and Table 6 present the values of concentration that inhibits cell viability to 50% (IC50) and selectivity index (SI = IC50(MCF-10A)/IC50(tumor cell line)).
(§2) The antiproliferative activity testing was performed on cell cultures from several human cancer cell lines the MTT-dye reduction assay, described by Mosmann. Cell lines were obtained from the American Type Cultures Collection (ATCC, Manassas, VA, USA). In this article we used the following cell lines: MCF-10A (ATCC, CRL-10317™) Non-tumorigenic epithelial cells of mammary gland, MCF-7 (ATCC, HTB-22™) Luminal type A breast carcinoma, MDA-MB-231 (ATCC, HTB-26™) Triple negative breast carcinoma, H1299 (ATCC, CRL-5803™) Non-small-cell lung carcinoma, A549 (ATCC, CRM-CCL-185™) Llung alveolar adenocarcinoma, HeLa (ATCC, CCL-2™) Cervical cancer, Hep G2 (ATCC, HB-8065™) Hepatocellular carcinoma, HT-29 (ATCC, HTB-38™) Colorectal adenocarcinoma, PC-3 (ATCC, CRL-1435™) Prostate adenocarcinoma. The cells were cultured in a cell culture laboratory at the Institute of Experimental Morphology, Pathology and Anthropology with a Museum—Bulgarian Academy of Sciences. They were cultured in Dulbecco’s Modified Eagle’s medium, high glucose (DMEM 4.5 g/L glucose), supplied with 10% fetal bovine serum and antibiotics in usual concentrations in a humidified atmosphere with 5% CO2 at 37.5 °C. In the case of MCF-10A cells, epidermal growth factor, insulin and cholera toxin were added in concentrations corresponding to the cell bank instructions. Cells were plated at a density of 1 × 10^3 cells per well in a 96-well flat-bottomed microplates and allowed to adhere for 24 h before treatment with the test compounds, dissolved in DMSO, and further diluted in culture medium to the final concentrations. A concentration ranges from 5 µM to 4.1 mM was tested over an incubation period of 72 h. Cisplatin (Sigma-Aldrich) was used as a positive control in a concentration range 50 nM to 100 µM. All experiments were performed in triplicates. The MTT-formazan absorption was measured using a microplate reader (TECAN, Sunrise^TM, Groedig/Salzburg, Austria) at 570 nm. Antiproliferative activities were expressed as IC50 values (concentrations required for 50% inhibition of cell growth), calculated using non-linear regression analysis (GraphPad Prizm8 Software). The statistical analysis involved One-way ANOVA followed by Bonferroni’s post hoc test p < 0.05 was accepted as the lowest level of statistical significance.
(Tetrazolium dyes change colour on reduction, which living cells bring about.)

Test [2] deals with MCF-7 (luminal type A breast carcinoma). Briefly: MTT antiproliferative assay, MCF-7. Type of test: cell-based, human. To be noted: MCF-7, MTT, 72 h. The protocol:
as §1, §2

The test system of test [3] is MDA-MB-231 (triple negative human breast carcinoma). Put plainly: MTT antiproliferative assay, MDA-MB-231. To be noted: for IC50: MDA-MB-231, MTT, 72 h; for antiproliferative activity (in words): MDA-MB-231, preliminary experiments. It counts as cell-based. As for the experimental part:
as §1, §2

Test [4] concerns H1299 (non-small-cell lung carcinoma cells). Put plainly: MTT antiproliferative assay, H1299. It counts as cell-based, human. The protocol:
as §1, §2

Test [5] relates to A549 (lung alveolar adenocarcinoma). Briefly: MTT antiproliferative assay, A549. Type of test: cell-based, human. To be noted: 72 h. As for the experimental part: as §1, §2
A further test has as its system HeLa (cervical cancer). Put plainly: MTT antiproliferative assay, HeLa. It counts as cell-based, human. To be noted: 72 h. The protocol: as §1, §2
For test [6], the system named is HepG2 (hepatocellular carcinoma). Briefly: MTT antiproliferative assay, HepG2. To be noted: 72 h. It counts as cell-based, human. The protocol:
as §1, §2

The test system of test [7] is HT-29 (colorectal adenocarcinoma). Briefly: MTT antiproliferative assay, HT-29. It counts as cell-based, human. To be noted: HT-29, MTT, 72 h. As for the experimental part: as §1, §2
Test [8] concerns PC3 (prostate adenocarcinoma). Briefly: MTT antiproliferative assay, PC3. Type of test: cell-based, human. To be noted: 72 h. As for the experimental part:
as §1, §2

In the case of `COc1ccc(C2=N[C@@H](C#N)[C@@H](c3ccccc3)C2)cc1` (racemic) [cis-4e], the IC50 (as a rule, the concentration that inhibits the measured activity by half) in [1] (Homo sapiens) was 427 ± 12 µM; in test [2] (Homo sapiens, MCF7), 1770 ± 232 µM; in test [3] (Homo sapiens), over 3620 µM; in test [4] (Homo sapiens, NCI-H1299, 72 h), 840 ± 43 µM; in test [5] (Homo sapiens), 341 ± 26 µM; with HeLa (cervical cancer) (Homo sapiens), 158 ± 6.5 µM. The IC50 in test [6] (Homo sapiens) was determined as 554 ± 34 µM; in test [7] (Homo sapiens) it was 308 ± 8 µM; in test [8] (Homo sapiens), 478 ± 58 µM.

For the compound `N#C[C@@H]1N=C(c2ccccc2)C[C@@H]1c1cccnc1` (racemic) [cis-4h], the IC50 is 2280 ± 178 µM in test [1] (Homo sapiens); 1380 ± 255 µM in [2] (Homo sapiens, MCF7); over 4110 µM in test [3] (Homo sapiens); 2980 ± 62 µM in test [4] (Homo sapiens, NCI-H1299, 72 h); 311 ± 19 µM in test [5] (Homo sapiens); 2220 ± 136 µM in the test on HeLa (cervical cancer) (Homo sapiens). Moreover, the IC50 in [6] (Homo sapiens) amounted to 3000 ± 107 µM; in test [7] (Homo sapiens), 1640 ± 132 µM; in [8] (Homo sapiens), 1920 ± 70 µM.

As for `Cc1ccc(C2=N[C@@H](C#N)[C@@H](c3ccccc3)C2)cc1` (racemic) [cis-4k], the IC50 in test [1] (Homo sapiens) was determined as 104 ± 6 µM; in test [2] (Homo sapiens, MCF7) it was 374 ± 6 µM; in test [3] (Homo sapiens) it was 2560 ± 107 µM; in test [4] (Homo sapiens, NCI-H1299, 72 h), 205 ± 6 µM; in [5] (Homo sapiens), 82.2 ± 5.8 µM; in the test on HeLa (cervical cancer) (Homo sapiens), 169 ± 10 µM. In addition, the IC50 in [6] (Homo sapiens) turned out to be 235 ± 15 µM; in [7] (Homo sapiens) it was 853 ± 46 µM; in test [8] (Homo sapiens) it was 297 ± 25 µM.

`COc1cc(O)c(C2=N[C@@H](C#N)[C@@H](c3ccc(C)c(Cl)c3)C2)c(OC)c1` (racemic) [cis-4n] had an IC50 in test [3] (Homo sapiens) of 75.8 µM. In other words, the double-digit micromolar range.

Take `COc1cc(O)c(C2=N[C@@H](C#N)[C@@H](c3ccc(C)c(Br)c3)C2)c(OC)c1` (racemic) [cis-4o]: the IC50 in test [3] (Homo sapiens) came out at 35.9 µM.

Turning to `COc1cc(O)c(C2=N[C@@H](C#N)[C@H](c3ccc(C)c(F)c3)C2)c(OC)c1` (racemic) [trans-4m], the IC50 is 79.3 ± 2.5 µM in test [1] (Homo sapiens); 149 ± 12 µM in test [2] (Homo sapiens, MCF7); 717 ± 73 µM in test [3] (Homo sapiens); 36.4 ± 2 µM in [4] (Homo sapiens, NCI-H1299, 72 h); 32.2 ± 1.1 µM in test [5] (Homo sapiens); 1170 ± 42 µM with HeLa (cervical cancer) (Homo sapiens). For the same compound, the IC50 turned out to be 44.6 ± 2.8 µM in test [6] (Homo sapiens), 28.1 ± 2 µM in test [7] (Homo sapiens) and 44.3 ± 5.4 µM in [8] (Homo sapiens).

Turning to `COc1cc(O)c(C2=N[C@@H](C#N)[C@H](c3ccc(C)c(Cl)c3)C2)c(OC)c1` (racemic) [trans-4n], in [3], the “antiproliferative activity (in words)” value is recorded as “very poor activity”.

Consider `COc1cc(O)c(C2=N[C@@H](C#N)[C@H](c3ccc(C)c(Br)c3)C2)c(OC)c1` (racemic) [trans-4o], for which the “antiproliferative activity (in words)” value in [3] is on record as “very poor activity”.

Regarding `COc1cc(O)c(C2=N[C@@H](C#N)[C@H](c3ccc(C)c(F)c3)C2)c(OC)c1` (relative stereo) [cis-4m, rel-(2R,3S)-3-(3-fluoro-4-methylphenyl)-5-(2-hydroxy-4,6-dimethoxyphenyl)-3,4-dihydro-2H-pyrrole-2-carbonitrile], the IC50 in [1] is 170 ± 12 µM; in test [2] it was 185 ± 26 µM; in test [3], 16 ± 0.7 µM; in [4] (72 h), 25.4 ± 2.3 µM; in test [5], 97.6 ± 13 µM; with HeLa (cervical cancer) it was 224 ± 15 µM. In addition, the IC50 in [6] was found to be 117 ± 4.8 µM; in [7], 19.6 ± 1.8 µM; in test [8], 115 ± 4.8 µM.

Turning to `Cc1ccc(C2=N[C@@H](C#N)[C@H](c3ccccc3)C2)cc1` (relative stereo) [trans-4k, rel-(2R,3S)-5-(4-methylphenyl)-3-phenyl-3,4-dihydro-2H-pyrrole-2-carbonitrile], the concentration for half-maximal inhibition (IC50) came out at 182 ± 5.8 µM in [1] (Homo sapiens); 568 ± 57 µM in test [2] (Homo sapiens, MCF7); 313 ± 20 µM in test [3] (Homo sapiens); 354 ± 15 µM in [4] (Homo sapiens, NCI-H1299, 72 h); 11.7 ± 0.8 µM in [5] (Homo sapiens); 84.1 ± 2.3 µM with HeLa (cervical cancer) (Homo sapiens). Also, the IC50 came out at 159 ± 4.6 µM in test [6] (Homo sapiens), 136 ± 7.7 µM in test [7] (Homo sapiens) and 121 ± 13 µM in test [8] (Homo sapiens).

As to `N.N.[Cl][Pt][Cl]` [Cisplatin, reference compound], the IC50 in test [1] was 23.2 ± 1.4 µM; in test [2], 45.8 ± 3.2 µM; in test [3], 1.8 ± 0.1 µM; in test [4] (72 h), 5 ± 0.9 µM; in test [5], 38.6 ± 4.7 µM; in the test with HeLa (cervical cancer), 19.6 ± 3.2 µM. Besides, the IC50 in [6] worked out at 19.1 ± 0.4 µM; in test [7], 8.2 ± 0.3 µM; in test [8], 3.4 ± 0.5 µM.

Take `COc1cc(O)c(C2=N[C@@H](C(N)=O)[C@@H](c3ccc(C)c(F)c3)C2)c(OC)c1` [cis-6m]: the IC50 in test [1] (Homo sapiens) amounted to 429 ± 28 µM; in test [2] (Homo sapiens, MCF7), 923 ± 37 µM; in test [3] (Homo sapiens) it was 1990 ± 40 µM; in test [4] (Homo sapiens, NCI-H1299, 72 h) it was 1880 ± 51 µM; in [5] (Homo sapiens), 136 ± 5.4 µM; with HeLa (cervical cancer) (Homo sapiens), 1180 ± 37 µM. For the same compound, the values for the IC50 in [6] (Homo sapiens), in test [7] (Homo sapiens) and in test [8] (Homo sapiens) were 117 ± 6.2 µM, 64.3 ± 4.8 µM and 125 ± 7.6 µM, respectively.
